# Reference: US20260108546A1 (ELI LILLY AND COMPANY, priority 2024, published 2026)
# Molecular target: T1, hGIP-R (Homo sapiens, UniProt P48546)
# T1 construct: expressed in transfected cells; host or cells: HEK-293 clonal cell lines
# T1 sequence (P48546 22-466): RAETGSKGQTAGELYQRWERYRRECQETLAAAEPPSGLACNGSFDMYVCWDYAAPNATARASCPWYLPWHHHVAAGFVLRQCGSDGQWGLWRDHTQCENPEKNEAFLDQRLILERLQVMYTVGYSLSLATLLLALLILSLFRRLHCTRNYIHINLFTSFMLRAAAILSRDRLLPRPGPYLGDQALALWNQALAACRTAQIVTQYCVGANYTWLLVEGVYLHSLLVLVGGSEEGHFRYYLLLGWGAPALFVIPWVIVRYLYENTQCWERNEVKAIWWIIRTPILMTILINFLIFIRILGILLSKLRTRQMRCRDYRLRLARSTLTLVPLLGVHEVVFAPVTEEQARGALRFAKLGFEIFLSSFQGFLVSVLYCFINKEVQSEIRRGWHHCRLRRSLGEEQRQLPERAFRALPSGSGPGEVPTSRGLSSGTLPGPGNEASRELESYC
# Test: Functional hGIP-R Assay (cAMP formation, HTRF)
# Assay type: cell-based
# Settings: for Emax: cAMP efficacy, percent of maximal response to GIP(1-42)OH, 37° C., 0.1% bovine casein, arithmetic mean ± SEM; for EC50: cAMP potency, HEK-293 cells expressing hGIP-R, incubated at 37° C. in the presence of 0.1% bovine casein, geometric mean, read-out: Human GIP-R EC50, nM (SEM, n)
# Method in brief: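 Relative EC50 and Emax came from four-parameter logistic fits of cAMP as a percent of the human GIP (1-42) OH maximal response. The cAMP was measured by competitive HTRF after 30 min, 37 °C compound exposure of hGIP-R HEK-293 clones in IBMX (250 μM)-containing medium.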
Emax,EC50,Compound
78.4 ± 3.18%,13.7 nM,"Cn1cc2cc(-c3ccc([C@H]4C[C@@]45CCN([C@H](Cc4cnn(C(F)F)c4)C(=O)NC(C)(C)Cn4nc(C(F)(F)F)cc4-c4cn(C)c(=O)c6ccnn46)C5=O)cc3)cnc2n1 [Example 133, (R)-3-(1-(Difluoromethyl)-1H-pyrazol-4-yl)-N-(2-methyl-1-(5-(5-methyl-4-oxo-4,5-dihydropyrazolo[1,5-a]pyrazin-7-yl)-3-(trifluoromethyl)-1H-pyrazol-1-yl)propan-2-yl)-2-((1R,3R)-1-(4-(2-methyl-2H-pyrazolo[3,4-b]pyridin-5-yl)phenyl)-4-oxo-5-azaspiro[2.4]heptan-5-yl)propanamide]"
57.4 ± 0.103%,7.63 nM,"Cn1cc2cc(-c3ccc([C@H]4C[C@@]45CCN([C@H](Cc4cnn(C(F)F)c4)C(=O)NC(C)(C)Cn4nc(C(F)(F)F)cc4-c4ccn(C(F)F)c(=O)c4)C5=O)c(F)c3)cnc2n1 [Example 134, (R)-3-(1-(Difluoromethyl)-1H-pyrazol-4-yl)-N-(1-(5-(1-(difluoromethyl)-2-oxo-1,2-dihydropyridin-4-yl)-3-(trifluoromethyl)-1H-pyrazol-1-yl)-2-methylpropan-2-yl)-2-((1S,3R)-1-(2-fluoro-4-(2-methyl-2H-pyrazolo[3,4-b]pyridin-5-yl)phenyl)-4-oxo-5-azaspiro[2.4]heptan-5-yl)propanamide]"
48.5 ± 2.32%,5.61 nM,"CN(C)Cc1ccc(-c2cc(C(F)(F)F)nn2CC(C)(C)NC(=O)[C@@H](Cc2cnn(C(F)F)c2)N2CC[C@@]3(C[C@@H]3c3ccc(-c4cnc5nn(C)cc5c4)cc3F)C2=O)cn1 [Example 135, (R)-3-(1-(Difluoromethyl)-1H-pyrazol-4-yl)-N-(1-(5-(6-((dimethylamino)methyl)pyridin-3-yl)-3-(trifluoromethyl)-1H-pyrazol-1-yl)-2-methylpropan-2-yl)-2-((1S,3R)-1-(2-fluoro-4-(2-methyl-2H-pyrazolo[3,4-b]pyridin-5-yl)phenyl)-4-oxo-5-azaspiro[2.4]heptan-5-yl)propanamide]"
74.6 ± 6.02%,10.8 nM,"[2H]C([2H])([2H])N(C(=O)[C@H]1C[C@@H]1c1ccc(-c2cnc3nn(C)cc3c2)nc1C(F)(F)F)[C@H](Cc1cnn(C(F)F)c1)C(=O)NC(C)(C)Cn1nc(C(F)(F)F)cc1-c1cc(F)c(=O)n(C)c1 [Example 136, (1S,2S)-N—((R)-3-(1-(Difluoromethyl)-1H-pyrazol-4-yl)-1-((1-(5-(5-fluoro-1-methyl-6-oxo-1,6-dihydropyridin-3-yl)-3-(trifluoromethyl)-1H-pyrazol-1-yl)-2-methylpropan-2-yl)amino)-1-oxopropan-2-yl)-N-(methyl-d3)-2-(6-(2-methyl-2H-pyrazolo[3,4-b]pyridin-5-yl)-2-(trifluoromethyl)pyridin-3-yl)cyclopropane-1-carboxamide]"
61.7 ± 1.34%,12.3 nM,"[2H]C([2H])([2H])N(C(=O)[C@H]1C[C@@H]1c1ccc(-c2cnc3nn(C)cc3c2)nc1C(F)F)[C@H](Cc1cnn(C(F)F)c1)C(=O)NC(C)(C)Cn1nc(C(F)(F)F)cc1-c1cc(F)c(=O)n(C)c1 [Example 137, (1S,2S)-N-((R)-3-(1-(Difluoromethyl)-1H-pyrazol-4-yl)-1-((1-(5-(5-fluoro-1-methyl-6-oxo-1,6-dihydropyridin-3-yl)-3-(trifluoromethyl)-1H-pyrazol-1-yl)-2-methylpropan-2-yl)amino)-1-oxopropan-2-yl)-2-(2-(difluoromethyl)-6-(2-methyl-2H-pyrazolo[3,4-b]pyridin-5-yl)pyridin-3-yl)-N-(methyl-d3)cyclopropane-1-carboxamide]"
52.3%,99.2 nM,"[2H]C([2H])([2H])N(C(=O)[C@H]1C[C@@H]1c1ccc(-c2cnc3nn(C)cc3c2)nc1C(F)F)[C@@H](Cc1cnn(C(F)F)c1)C(=O)NC(C)(C)Cn1nc(C(F)(F)F)cc1-c1cc(F)c(=O)n(C)c1 [Example 138, (1S,2S)-N-((S)-3-(1-(Difluoromethyl)-1H-pyrazol-4-yl)-1-((1-(5-(5-fluoro-1-methyl-6-oxo-1,6-dihydropyridin-3-yl)-3-(trifluoromethyl)-1H-pyrazol-1-yl)-2-methylpropan-2-yl)amino)-1-oxopropan-2-yl)-2-(2-(difluoromethyl)-6-(2-methyl-2H-pyrazolo[3,4-b]pyridin-5-yl)pyridin-3-yl)-N-(methyl-d3)cyclopropane-1-carboxamide]"
99.7 ± 3.49%,24.8 nM,"[2H]C([2H])([2H])N(C(=O)[C@H]1C[C@@H]1c1cnc(-c2cnc3nn(C)cc3c2)nc1C(F)(F)F)[C@H](Cc1cnn(C(F)F)c1)C(=O)NC(C)(C)Cn1nc(C(F)(F)F)cc1-c1cc(F)c(=O)n(C)c1 [Example 139, (1S,2S)-N-((R)-3-(1-(Difluoromethyl)-1H-pyrazol-4-yl)-1-((1-(5-(5-fluoro-1-methyl-6-oxo-1,6-dihydropyridin-3-yl)-3-(trifluoromethyl)-1H-pyrazol-1-yl)-2-methylpropan-2-yl)amino)-1-oxopropan-2-yl)-N-(methyl-d3)-2-(2-(2-methyl-2H-pyrazolo[3,4-b]pyridin-5-yl)-4-(trifluoromethyl)pyrimidin-5-yl)cyclopropane-1-carboxamide]"
60.9 ± 5.88%,26.2 nM,"[2H]C([2H])([2H])n1cc(-c2cc(C(F)(F)F)nn2CC(C)(C)NC(=O)[C@@H](Cc2cnn(C(F)F)c2)N2CC[C@@]3(C[C@@H]3c3ccc(-c4cnc5nn(C)cc5c4)cc3)C2=O)cc(F)c1=O [Example 141, (R)-3-(1-(Difluoromethyl)-1H-pyrazol-4-yl)-N-(1-(5-(5-fluoro-1-(methyl-d3)-6-oxo-1,6-dihydropyridin-3-yl)-3-(trifluoromethyl)-1H-pyrazol-1-yl)-2-methylpropan-2-yl)-2-((1R,3R)-1-(4-(2-methyl-2H-pyrazolo[3,4-b]pyridin-5-yl)phenyl)-4-oxo-5-azaspiro[2.4]heptan-5-yl)propanamide]"
49.9 ± 1.38%,102 nM,"Cn1cc2cc(-c3ccc([C@H]4C[C@@]45CCN([C@H](Cc4cnn(C(F)F)c4)C(=O)NC(C)(C)Cn4nc(C(F)(F)F)cc4-c4cnc(N6CCC(=O)CC6)nc4)C5=O)cc3)cnc2n1 [Example 142, (R)-3-(1-(Difluoro-methyl)-1H-pyrazol-4-yl)-N-(2-methyl-1-(5-(2-(4-oxopiperidin-1-yl)pyrimidin-5-yl)-3-(trifluoromethyl)-1H-pyrazol-1-yl)propan-2-yl)-2-((1R,3R)-1-(4-(2-methyl-2H-pyrazolo[3,4-b]pyridin-5-yl)phenyl)-4-oxo-5-azaspiro[2.4]heptan-5-yl)propanamide]"
72.8 ± 3.32%,57.7 nM,"Cn1cc2cc(-c3ccc([C@H]4C[C@@]45CCN([C@H](Cc4cnn(C(F)F)c4)C(=O)NC(C)(C)Cn4nc(C(F)(F)F)cc4-c4ccc(C#N)nc4)C5=O)cc3)cnc2n1 [Example 143, (R)-N-(1-(5-(6-Cyanopyridin-3-yl)-3-(trifluoro-methyl)-1H-pyrazol-1-yl)-2-methylpropan-2-yl)-3-(1-(difluoro-methyl)-1H-pyrazol-4-yl)-2-((1R,3R)-1-(4-(2-methyl-2H-pyrazolo[3,4-b]pyridin-5-yl)phenyl)-4-oxo-5-azaspiro[2.4]heptan-5-yl)propanamide]"
63.3 ± 2.24%,0.755 nM,"Cc1cn2cc(-c3ccc([C@H]4C[C@@]45CCN([C@H](Cc4cnn(C(F)F)c4)C(=O)NC(C)(C)Cn4nc(C(F)(F)F)cc4-c4cc(F)c(=O)n(C)c4)C5=O)c(C)c3)cnc2n1 [Example 144, (R)-3-(1-(Difluoromethyl)-1H-pyrazol-4-yl)-N-(1-(5-(5-fluoro-1-methyl-6-oxo-1,6-dihydropyridin-3-yl)-3-(trifluoromethyl)-1H-pyrazol-1-yl)-2-methylpropan-2-yl)-2-((1R,3R)-1-(2-methyl-4-(2-methylimidazo[1,2-a]pyrimidin-6-yl)phenyl)-4-oxo-5-azaspiro[2.4]heptan-5-yl)propanamide]"
96.6 ± 2.37%,0.727 nM,"Cc1nc(-c2cnc3nc(C4CC4)cn3c2)ccc1[C@H]1C[C@@]12CCN([C@H](Cc1cnn(C(F)F)c1)C(=O)NC(C)(C)Cn1nc(C(F)(F)F)cc1-c1ccn(C3CC3)c(=O)c1)C2=O [Example 145, (R)—N-(1-(5-(1-Cyclopropyl-2-oxo-1,2-dihydropyridin-4-yl)-3-(trifluoromethyl)-1H-pyrazol-1-yl)-2-methylpropan-2-yl)-2-((1R,3R)-1-(6-(2-cyclopropylimidazo[1,2-a]pyrimidin-6-yl)-2-methylpyridin-3-yl)-4-oxo-5-azaspiro[2.4]heptan-5-yl)-3-(1-(difluoromethyl)-1H-pyrazol-4-yl)propanamide]"
86.1 ± 9%,17.2 nM,"Cc1ncc(-c2cc(C(F)(F)F)nn2CC(C)(C)NC(=O)[C@@H](Cc2cnn(C(F)F)c2)NC(=O)[C@H]2C[C@@H]2c2ccc(-c3cnc4nn(C)cc4c3)nc2C(F)(F)F)cn1 [Example 147, (1S,2S)-N—((R)-3-(1-(Difluoromethyl)-1H-pyrazol-4-yl)-1-((2-methyl-1-(5-(2-methylpyrimidin-5-yl)-3-(trifluoromethyl)-1H-pyrazol-1-yl)propan-2-yl)amino)-1-oxopropan-2-yl)-2-(6-(2-methyl-2H-pyrazolo[3,4-b]pyridin-5-yl)-2-(trifluoromethyl)pyridin-3-yl)cyclopropane-1-carboxamide]"
